Series [1] has as its system A549 (epithelial-like lung cells). The series can be described thus: Presto Blue viability assay, A549. It counts as cell-based. To be noted: Homo sapiens, 8 h treatment, read-out: IC50 (concentration needed to inhibit cell viability by 50%). As for the experimental part:
(§1) The biocompatibility of charged pi-conjugated compounds with mammalian cell lines was evaluated by studying the effects of different charged pi-conjugated compound concentrations on the viability of two mammalian cell lines: A549 (epithelial-like lung cells) and HEK293 (epithelial-like kidney cells). […] Dose-response curves were used to determine IC50 values, that is, the concentration of charged pi-conjugated compound needed to inhibit cell viability by 50%. […] The MIC of MRSA USA300 was used to calculate the therapeutic index. MRSA USA300 is a major contributor to community-associated MRSA infections, including skin and soft tissue infections, bacteraemia, endocarditis, bone and joint infections and nosocomial infections. […]
(§2) The biocompatibility of charged pi-conjugated compounds with mammalian cell lines was assessed by determining their impact on the mitochondrial activity of human alveolar basal epithelial adenocarcinoma cells (A549) and human embryonic kidney cells (HEK293T) cells, using the Presto Blue assay according to the manufacturer's protocol. […] After 8 h, Presto Blue cell viability reagent (Thermo Fisher Scientific, Waltham, MA, USA) was added to the cells, and after 2 h of incubation, fluorescence was measured using a microplate reader (BioTek Instruments Inc., Winooski, VT, USA). […] The therapeutic index was calculated from the ratio between IC50 and the MIC.

A further series has as its system MRSA USA300. Description: Therapeutic index calculation (IC50 of mammalian cell lines / MIC). Conditions: ratio of average IC50 for A549 and HEK293 to MIC in MRSA USA300. As to the method:
as §1, §2

In series [2] the test system is A375 cancer cells (melanoma). Description: Crystal violet cytotoxicity test in A375 cells without light activation. It counts as cell-based, human. As for the experimental part:
(§3) The inhibitory concentration of charged pi-conjugated compounds needed to inhibit the cell growth by 50% (toxicity IC50).
(§4) Most of the charged pi-conjugated compounds are aminocyanines which are functionalized with alkyl amine group. The charged pi-conjugated compounds were added to cell cultures of A375 cancer cells (human melanoma) and their cytotoxicity was quantified by the crystal violet test and/or clonogenic assays for cell viability. […] The longer the exposure the most cytotoxic the charged pi-conjugated compounds are towards A375 cells. […] The same behavior is observed: the longer the exposure, the more cytotoxic. All molecules presented here are aminocyanines except GL-261-2 which is a carboxyl-cyanine. […] This was the first time a therapeutic window of concentration that can be tuned to selectively kill cancer and/or protect cells was suspected. In finding this therapeutic window concentration and time of exposure are important variables that should be fine tuned.
(§5) Based on the finding described above, a larger set of charged pi-conjugated compounds was evaluated for cytotoxicity against A375 cancer cells as shown in FIG. 25 and FIG. 26.
(§6) The IC50 is the concentration needed to inhibit the cell viability by 50%. These molecules in FIG. 25 and FIG. 26 were evaluated by crystal violet assay and using 2 days of exposure.

The test system of series [3] is A375 cancer cells (melanoma). Description: Clonogenic assay cytotoxicity in A375 cells without light. It counts as cell-based, human. As to the method: (§7) FIGS. 28A-28B provide a summary of the evidence of the cytotoxicity of charged pi-conjugated compounds without light. Toxicity was measured using clonogenic assay with 7 hours of incubation (contact time between molecules and A375 cells) and 7 days for colony formation. (FIG. 28A) The lethal concentration of the cyanine molecules to kill 50% of the A375 cells (Tox LC50) without light activation. (FIG. 28B) Chemical structure of exemplary charged pi-conjugated compounds. On average, 300 cells equal to 300 colonies were seeded and analyzed for each data point.
(§8) Both properties were measured using clonogenic assay with 7 hours of incubation (contact time between molecules and A375 cells) and 7 days for colony formation. 300 cells were seeded and analyzed for each data point.
(§9) More cytotoxicity tests were conducted in some additional molecules and using clonogenic assay for cell viability (FIG. 28). A375 cells were exposed to charged pi-conjugated compounds for 7 hours, in contrast to the previously presented assays which were conducted with crystal violet assay and 2 days of exposure. The data points showing the cytotoxicity quantification for each individual molecule are presented in FIG. 29, with resulting IC50 values summarized in Table 4.

Series [4] is described as follows: Crystal violet cytotoxicity test in A375 cells without light activation. It is filed as cell-based, human. To be noted: human. As to the method: as §3, §4, §5, §6
A short description of series [5]: Clonogenic assay cytotoxicity in A375 cells without light. To be noted: human. It is filed as cell-based, human. As for the experimental part: as §7, §8, §9
The test system of a further series is A375 melanoma. Description: Toxicity on A375 melanoma versus normal melanocytes (A375 arm). It is filed as cell-based, human. Conditions: 1 μM concentration. As for the experimental part: (§10) FIG. 32 provides evidence of toxicity of charged pi-conjugated compounds on HEMa (normal melanocytes) versus on A375 melanoma using 1 day of incubation versus 2 days of incubation. BL-204, BL-141-2, BL-304 are aminocyanines. In contrast, TS-1-32 and GL-261-2 are two names for a carboxycyanine compound shown as GL-261-2 in FIG. 23.
This characterization is accurate for long exposures (~24 h) and in 200,000 cells/mL. The limits of toxic concentration (referenced herein as a therapeutic window) can vary with the exposure time and total cell number present in the test. For example, 1 μM concentration of charged pi-conjugated compounds are safe when used at 30 min exposure in the cell culture at 200,000 cells/mL. However, about higher than 2 μM cyanine becomes toxic (~8 μM) even at short exposure time (~30 min) for 200,000 cells/mL. In contrast, for a solid tumor this lethal concentration is expected to be higher since hundreds of millions of cells are contained in a small solid tumor. The dose may be calibrated and normalized by the total number of cells. The correct therapeutic window to kill cancer cells should be expressed in μg of charged pi-conjugated compound per 1 million of cells or ug of charged pi-conjugated compound per gram of cells. […]

The test system of series [6] is HEMa (normal melanocytes). The series can be described thus: Toxicity on A375 melanoma versus normal melanocytes (HEMa arm). It counts as cell-based. To be noted: for safety for normal skin melanocyte cells (HEMa): 1 μM concentration. As for the experimental part: as §10
This characterization is accurate for long exposures (~24 h) and in 200,000 cells/mL. The limits of toxic concentration (referenced herein as a therapeutic window) can vary with the exposure time and total cell number present in the test. For example, 1 μM concentration of charged pi-conjugated compounds are safe when used at 30 min exposure in the cell culture at 200,000 cells/mL. However, about higher than 2 μM cyanine becomes toxic (~8 μM) even at short exposure time (~30 min) for 200,000 cells/mL. In contrast, for a solid tumor this lethal concentration is expected to be higher since hundreds of millions of cells are contained in a small solid tumor. The dose may be calibrated and normalized by the total number of cells. The correct therapeutic window to kill cancer cells should be expressed in μg of charged pi-conjugated compound per 1 million of cells or ug of charged pi-conjugated compound per gram of cells. […] Therefore, the presently disclosed charged pi-conjugated compounds may be useful in a clinical application in patients where the charged pi-conjugated compounds could protect the normal tissue and selectively cause toxicity to cancer cells.

The next series concerns Gram-positive strains. Description: MIC / MIC50 by broth microdilution in panel of Gram-positive strains. It is filed as cell-based. To be noted: MIC50 over all Gram-positive strains tested (Table 2). As to the method:
Antibacterial activity was assessed by determining the minimal inhibitory concentration (MIC) and the minimal bactericidal concentrations (MBC) and by monitoring time-dependent bacterial killing of exponentially growing cells. Bacterial cell suspensions (OD600≈0.02 in cation-adjusted Muller-Hinton Broth) were treated with increasing concentrations of the different molecules. The minimal inhibitory concentration (MIC) was defined as the minimal concentration of the molecule resulting in complete bacterial growth arrest. The minimal bactericidal concentration (MBC) was defined as the lowest concentration of the molecule that killed 99.9% of the inoculum. A molecule was determined to be bactericidal if the ratio of the MBC to the MIC was less than 4 to 6. […] In M. smegmatis, the antibacterial activity of charged pi-conjugated compounds was generally lower.
The MIC values for all Gram-positive strains tested (Table 2) were used to calculate the MIC50, i.e., the minimum inhibitory concentration needed to inhibit the growth of 50% of the tested isolates (FIG. 5A). […] When the average MIC50 values were evaluated, the most susceptible bacterial genera were Streptococcus sp., followed by Staphylococcus sp. In contrast, Propionibacterium sp. had the highest average MIC50 (FIG. 5B).
The broth microdilution method was used to determine the MIC of charged pi-conjugated compounds according to the CLSI guidelines. Charged pi-conjugated compound stock solutions (16 mM) were prepared in dimethyl sulfoxide (DMSO). Serial twofold dilutions of the charged pi-conjugated compounds were freshly prepared using the appropriate liquid media (Table 2), and 100 μL of each dilution was added to the appropriate wells of 96-well microtiter plates. The bacterial inoculum was further diluted in liquid media, and 100 μL was added to each well, resulting in a final cell density of ≈5×10^5 CFU mL^−1. […] A molecule was determined to be bactericidal if the ratio of the MBC to the MIC was less than 4 to 6. […]

Another series has as its system S. aureus ATCC 25923. The series can be described thus: Mutation frequency (rifampin-resistant colonies) on repeated treatment. It is filed as cell-based, Staphylococcus aureus. To be noted: frequency of rifampin-resistant colonies.
A further series has as its system S. aureus. The series can be described thus: Time-kill of combinations at 0.5×MIC. To be noted: 0.5×MIC of individual agent, after 12 h of treatment. It counts as cell-based, Staphylococcus aureus.

Procedure for S. aureus ATCC 25923: In addition, the mutation frequency (assessed as the frequency of rifampin-resistant colonies) of S. aureus ATCC 25923 subjected to repeated treatment with charged pi-conjugated compound or the conventional antibiotic ciprofloxacin was determined.
Mutation frequency was determined using rifampin resistance as a marker. The stored cells were revived overnight in LB broth and then plated on LB agar with and without rifampin (100 mg mL^−1) (Schaaff et al., 2002). The mutation frequency was calculated as the ratio of rifampin-resistant colonies to the total number of colonies.

In the case of `CN(C)C(=O)CN1c2ccc3ccccc3c2C(C)(C)C1/C=C/C1=CC(=C/C=C2/N(C)c3ccc4ccccc4c3C2(C)C)/CCC1.I` (stereo not shown) [BL 248], the IC50 in series [1] is 14700 nM. In the series on MRSA USA300, the therapeutic index is listed as 9.3.
For `CN1/C(=C/C=C2C=C(/C=C/C3=[N+](C)c4ccc5ccccc5c4C3(C)C)CCC/2)C(C)(C)c2c1ccc1ccccc21` [BL-141-1, 1,1,3-trimethyl-2-((E)-2-((E)-3-((E)-2-(1,1,3-trimethyl-1,3-dihydro-2H-benzo[e]indol-2-ylidene)ethylidene)cyclohex-1-en-1-yl)vinyl)-1H-benzo[e]indol-3-ium], the IC50 in series [2] (crystal violet assay, 2 days of exposure, without light activation, read-out: IC50 (μM), cytotoxicity to A375 cancer cells) came out at 0.125 µM; in [3] (clonogenic assay, 7 hours of exposure, 7 days colony formation, without light, read-out: IC50 (μM), cytotoxicity to A375 cancer cells) it was 0.14 µM.
As to `CN(C)CCCCCC[N+]1=C(/C=C/C2=CC(=C/C=C3/N(C)c4ccc5ccccc5c4C3(C)C)/CCC2)C(C)(C)c2c1ccc1ccccc21.[I-]` [BL-141-2, 3-(6-(dimethylamino)hexyl)-1,1-dimethyl-2-((E)-2-((E)-3-((E)-2-(1,1,3-trimethyl-1,3-dihydro-2H-benzo[e]indol-2-ylidene)ethylidene)cyclohex-1-en-1-yl)vinyl)-1H-benzo[e]indol-3-ium], the IC50 at 2 days in series [4] was found to be 750 nM. This compound also displayed an IC50 at 7 h in series [5] of 400 nM. In the series with A375 melanoma, the “selectivity for killing cancer cells (A375)” value is listed as “selective to specifically kill cancer cells”. In [6], the “cell viability of normal skin melanocyte cells” value is “increased the cell viability” and the “safety for normal skin melanocyte cells (HEMa)” value is “safe for normal skin melanocyte cells”.
The compound `CN(C)CC[N+]1=C(/C=C/C2=CC(=C/C=C3/N(C)c4ccc5ccccc5c4C3(C)C)/CCC2)C(C)(C)c2c1ccc1ccccc21.[I-]` [BL-204, 3-(2-(dimethylamino)ethyl)-1,1-dimethyl-2-((E)-2-((E)-3-((E)-2-(1,1,3-trimethyl-1,3-dihydro-2/I-benzo[e]indol-2-ylidene)ethylidene)cyclohex-1-en-1-yl)vinyl)-1H-benzo[e]indol-3-ium] displayed an IC50 at 2 days in series [4] of 600 nM. Besides, in series [5], the IC50 at 7 h was determined as 220 nM. For the same compound, the “selectivity for killing cancer cells (A375)” value in the series with A375 melanoma is “selective to specifically kill cancer cells”. Further, in series [6], the “cell viability of normal skin melanocyte cells” value was “increased the cell viability” and the “safety for normal skin melanocyte cells (HEMa)” value is “safe for normal skin melanocyte cells”.
Take `C[N+]1=C(/C=C/C=C/C=C2/N(CCCCCC(=O)NCCCCCCN)c3ccc4ccccc4c3C2(C)C)C(C)(C)c2c1ccc1ccccc21.Cl.[Cl-]` [Cy5.5-amine]: in series [2], the IC50 amounted to 2 µM; the “cytotoxicity at short exposure” value is “safe and showed low cytotoxicity”. Besides, the “antibacterial activity according to MIC50” value in the series on Gram-positive strains is on record as “strongest antibacterial activity”.
Consider `C[N+]1=C(/C=C/C2=CC(=C/C=C3/N(CCCCCC(=O)NCCCCCCN)c4ccccc4C3(C)C)/CCC2)C(C)(C)c2ccccc21` [Cy7-amine], for which the results for the IC50 in series [2] and in series [3] were 2 µM and 0.75 µM, respectively.
With `O=C(O)c1cn(C2CC2)c2cc(N3CCNCC3)c(F)cc2c1=O` [ciprofloxacin], in the series with S. aureus ATCC 25923, the “mutation rate across treatment cycles” value is listed as “marked increase across treatment cycles”.
Take `CCCCCCCCCC(=O)N[C@@H](Cc1c[nH]c2ccccc12)C(=O)N[C@H](CC(N)=O)C(=O)N[C@@H](CC(=O)O)C(=O)N[C@@H]1C(=O)NCC(=O)N[C@@H](CCCN)C(=O)N[C@@H](CC(=O)O)C(=O)N[C@H](C)C(=O)N[C@@H](CC(=O)O)C(=O)NCC(=O)N[C@H](CO)C(=O)N[C@@H]([C@H](C)CC(=O)O)C(=O)N[C@@H](CC(=O)c2ccccc2N)C(=O)O[C@@H]1C` [daptomycin]: in the series on S. aureus, the “maximum reduction in bacterial population size” value is given as “≈ 3 log10”.
In the case of gramicidin, the “maximum reduction in bacterial population size” value in the series with S. aureus is “≈ 3 log10”.

The values are drawn from patent US20260216134A1, “CHARGED PI-CONJUGATED MOLECULES FOR THE TREATMENT OF MICROBIAL INFECTIONS” (priority 2023, published 2026).
